From patent US20160362408A1 (Bayer Pharma Aktiengesellschaft, priority 2013, published 2016)

Biological target: T1, recombinant guanylate cyclase reporter cell line (Rattus norvegicus, UniProt P19686+P20595)
T1 construct: expressed in transfected cells
T1 sequence (P19686 1-690): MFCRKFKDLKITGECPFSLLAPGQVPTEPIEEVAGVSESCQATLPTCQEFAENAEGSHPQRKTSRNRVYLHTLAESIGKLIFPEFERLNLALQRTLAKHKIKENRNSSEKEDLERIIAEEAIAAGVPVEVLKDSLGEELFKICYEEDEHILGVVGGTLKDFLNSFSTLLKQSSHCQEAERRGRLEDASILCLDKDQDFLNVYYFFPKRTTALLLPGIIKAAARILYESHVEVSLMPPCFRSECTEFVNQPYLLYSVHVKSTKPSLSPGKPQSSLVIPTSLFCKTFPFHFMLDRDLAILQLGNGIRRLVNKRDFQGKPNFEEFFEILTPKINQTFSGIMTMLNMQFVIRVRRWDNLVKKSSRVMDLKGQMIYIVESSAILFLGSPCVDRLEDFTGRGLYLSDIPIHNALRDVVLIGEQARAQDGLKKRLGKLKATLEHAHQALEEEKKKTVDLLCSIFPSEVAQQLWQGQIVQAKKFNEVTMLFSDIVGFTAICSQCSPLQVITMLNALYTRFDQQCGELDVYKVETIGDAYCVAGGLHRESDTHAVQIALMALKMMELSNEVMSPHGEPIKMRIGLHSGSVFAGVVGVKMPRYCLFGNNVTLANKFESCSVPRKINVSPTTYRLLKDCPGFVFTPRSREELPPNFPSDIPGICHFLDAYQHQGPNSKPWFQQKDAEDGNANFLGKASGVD
T1 sequence (P20595 1-619): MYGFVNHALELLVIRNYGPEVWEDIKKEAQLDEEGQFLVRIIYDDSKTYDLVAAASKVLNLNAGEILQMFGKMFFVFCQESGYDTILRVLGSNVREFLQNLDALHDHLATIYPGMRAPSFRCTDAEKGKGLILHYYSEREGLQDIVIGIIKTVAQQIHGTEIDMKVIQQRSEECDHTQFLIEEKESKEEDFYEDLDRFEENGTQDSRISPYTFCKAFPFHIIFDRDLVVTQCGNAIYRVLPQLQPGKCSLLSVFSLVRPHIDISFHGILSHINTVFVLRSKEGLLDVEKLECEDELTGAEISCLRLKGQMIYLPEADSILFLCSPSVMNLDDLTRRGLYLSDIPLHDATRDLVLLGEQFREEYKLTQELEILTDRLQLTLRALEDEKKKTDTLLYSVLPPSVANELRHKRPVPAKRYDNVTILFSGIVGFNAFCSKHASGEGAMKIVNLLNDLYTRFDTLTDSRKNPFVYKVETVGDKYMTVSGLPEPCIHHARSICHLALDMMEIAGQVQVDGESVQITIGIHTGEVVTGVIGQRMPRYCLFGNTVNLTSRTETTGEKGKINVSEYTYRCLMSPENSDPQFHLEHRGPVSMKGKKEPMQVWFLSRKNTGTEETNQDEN
Test: Effect on a recombinant guanylate cyclase reporter cell line
Assay type: cell-based
Conditions: MEC = minimum effective concentration; in some cases mean values for individual determinations
Method: B-2. Effect on a Recombinant Guanylate Cyclase Reporter Cell Line
The cellular action of the compounds of the invention is determined using a recombinant guanylate cyclase reporter cell line, as described in F. Wunder et al., Anal. Biochem. 339, 104-112 (2005).
Representative MEC values (MEC=minimum effective concentration) for the compounds of the invention are shown in the table below (in some cases as mean values for individual determinations): […]

Row | Compound | MEC [µM]
1 | Cc1nc2c(OCc3c(F)cccc3F)cccn2c1C(=O)Nc1cnn(CCF)c1 [Example 140, 8-[(2,6-Difluorobenzyl)oxy]-N-[1-(2-fluoroethyl)-1H-pyrazol-4-yl]-2-methylimidazo[1,2-a]pyridine-3-carboxamide] | 1.0
2 | Cc1nc2c(OCc3c(F)cccc3F)cccn2c1C(=O)Nc1cnn(C(C)C)c1 [Example 27, 8-[(2,6-difluorobenzyl)oxy]-N-(1-isopropyl-1H-pyrazol-4-yl)-2-methylimidazo[1,2-a]pyridine-3-carboxamide] | 0.3
3 | Cc1nc2c(OCc3c(F)cccc3F)cccn2c1C(=O)Nc1n[nH]c2ccc(C(F)(F)F)cc12 [Example 114, 8-[(2,6-Difluorobenzyl)oxy]-2-methyl-N-[5-(trifluoromethyl)-1H-indazol-3-yl]imidazo[1,2-a]pyridine-3-carboxamide] | 0.3
4 | Cc1nc2c(OCc3c(F)cccc3F)cccn2c1C(=O)Nc1cc(F)cc(F)c1N [Example 143, N-(2-Amino-3,5-difluorophenyl)-8-[(2,6-difluorobenzyl)oxy]-2-methylimidazo[1,2-a]pyridine-3-carboxamide] | 0.3
5 | Cc1nc2c(OCc3c(F)cccc3F)cccn2c1C(=O)Nc1cccnc1 [Example 95] | 0.3
6 | COc1cccc(C)c1NC(=O)c1c(C)nc2c(OCc3c(F)cccc3F)cccn12 [Example 15] | 0.3
7 | Cc1nc2c(OCc3c(F)cccc3F)cccn2c1C(=O)Nc1cccc2ncccc12 [Example 68] | 0.3
8 | CCOc1cc(NC(=O)c2c(C)nc3c(OCc4c(F)cccc4F)cccn23)cc(C)n1 [Example 102] | 0.3
9 | Cc1ccc2cccnc2c1NC(=O)c1c(C)nc2c(OCc3c(F)cccc3F)cccn12 [Example 65] | 1.0
10 | CNC(=O)c1c(NC(=O)c2c(C)nc3c(OCc4c(F)cccc4F)cccn23)cnn1C [Example 36, 8-[(2,6-difluorobenzyl)oxy]-2-methyl-N-[1-methyl-5-(methylcarbamoyl)-1H-pyrazol-4-yl]imidazo[1,2-a]pyridine-3-carboxamide] | 1.0
11 | Cc1nc2c(OCc3c(F)cccc3F)cccn2c1C(=O)Nc1cnn(CCN(C)C)c1 [Example 134, 8-[(2,6-difluorobenzyl)oxy]-N-{1-[2-(dimethylamino)ethyl]-1H-pyrazol-4-yl}-2-methylimidazol[1,2-a] pyridine-3-carboxamide] | 3.0
12 | Cc1n[nH]c(C)c1NC(=O)c1c(C)nc2c(OCC3CCCCC3)cccn12 [Example 49, 8-(cyclohexylmethoxy)-N-(3,5-dimethyl-1H-pyrazol-4-yl)-2-methylimidazo[1,2-a]pyridine-3-carboxamide] | 0.1
13 | Cc1nc2c(OCc3c(F)cccc3F)cccn2c1C(=O)Nc1c(-c2ccccc2)noc1C [Example 55, 8-[(2,6-Difluorobenzyl)oxy]-2-methyl-N-(5-methyl-3-phenyl-1,2-oxazol-4-yl)imidazo[1,2-a]pyridine-3-carboxamide] | 1.0
14 | Cc1nc2c(OCc3c(F)cccc3F)cccn2c1C(=O)Nc1ccc(N2CCN(C)CC2)c(C(F)(F)F)c1 [Example 97] | 1.0
15 | Cc1nc2c(OCc3c(F)cccc3F)cccn2c1C(=O)Nc1c(C(F)(F)F)nn(CCO)c1C [Example 116, 8-[(2,6-Difluorobenzyl)oxy]-N-[1-(2-hydroxyethyl)-5-methyl-3-(trifluoromethyl)-1H-pyrazol-4-yl]-2-methylimidazo[1,2-a]pyridine-3-carboxamide] | 0.5
16 | CC(=O)Nc1ccc(NC(=O)c2c(C)nc3c(OCc4c(F)cccc4F)cccn23)cc1C(F)(F)F [Example 18] | 0.3
17 | Cc1cc(OCc2c(F)cccc2F)c2nc(C)c(C(=O)Nc3c(C)nn(CCO)c3C)n2c1 [Example 87] | 0.3
18 | Cc1ccncc1NC(=O)c1c(C)nc2c(OCc3c(F)cccc3F)cccn12 [Example 93] | 1.0
19 | COc1ccc(C)c(NC(=O)c2c(C)nc3c(OCc4c(F)cccc4F)cccn23)c1 [Example 16] | 0.3

Row | Compound | MEC [µM]
20 | Cc1nc2c(OCc3c(F)cccc3F)cccn2c1C(=O)Nc1cnn(CC(F)(F)F)c1 [Example 30, 8-[(2,6-difluorobenzyl)oxy]-2-methyl-N-[1-(2,2,2-trifluoroethyl)-1H-pyrazol-4-yl]imidazo[1,2-a]pyridine-3-carboxamide] | 0.3
21 | Cc1nc2c(OCc3c(F)cccc3F)cccn2c1C(=O)Nc1ccnc2c(F)cccc12 [Example 78] | 1.0
22 | Cc1cc(OCc2c(F)cccc2F)c2nc(C)c(C(=O)Nc3cnn(CCO)c3)n2c1 [Example 86] | 0.3
23 | Cc1nc2c(OCc3c(F)cccc3F)cccn2c1C(=O)Nc1cccc2ccc(O)cc12 [Example 74] | 1.0
24 | Cc1nc2c(OCc3c(F)cccc3F)cccn2c1C(=O)Nc1cccc2cc(Cl)ccc12 [Example 61] | 0.3
25 | Cc1nc2c(OCc3c(F)cccc3F)cc(Cl)cn2c1C(=O)Nc1cnn(CC(F)(F)F)c1 [Example 44, 6-chloro-8-[(2,6-difluorobenzyl)oxy]-2-methyl-N-[1-(2,2,2-trifluoroethyl)-1H-pyrazol-4-yl]imidazo[1,2-a]pyridine-3-carboxamide] | 1.0
26 | Cc1nc2c(OCC3CCCCC3)cccn2c1C(=O)Nc1cnn(CCO)c1 [Example 124, 8-(cyclohexylmethoxy)-N-[1-(2-hydroxyethyl)-1H-pyrazol-4-yl]-2-methylimidazo[1,2-a]pyridine-3-carboxamide] | 1.0
27 | Cc1nc2c(OCc3c(F)cccc3F)cccn2c1C(=O)Nc1cnn(CCN2CCC(O)CC2)c1 [Example 130, 8-[(2,6-difluorobenzyl)oxy]-N-{1-[2-(4-hydroxypiperidin-1-yl)ethyl]-1H-pyrazol-4-yl}-2-methylimidazol[1,2-a] pyridine-3-carboxamide] | 10
28 | Cc1cc(OCc2c(F)cccc2F)c2nc(C)c(C(=O)Nc3cnn(COCC(F)(F)F)c3)n2c1 [Example 89] | 0.1
29 | Cc1nc2c(OCc3c(F)cccc3F)cccn2c1C(=O)Nc1cn(C)nc1CO [Example 81] | 1.0
30 | Cc1cc(OCc2c(F)cccc2F)c2nc(C)c(C(=O)Nc3c(C(F)(F)F)n[nH]c3C)n2c1 [Example 94] | 0.1
31 | Cc1nc2c(OCc3c(F)cccc3F)cccn2c1C(=O)Nc1cnn(CCO)c1 [Example 22, 8-[(2,6-Difluorobenzyl)oxy]-N-[1-(2-hydroxyethyl)-1H-pyrazol-4-yl]-2-methylimidazo[1,2-a]pyridine-3-carboxamide] | 1.43
32 | Cc1nc2c(OCc3c(F)cccc3F)cccn2c1C(=O)Nc1cccc2ccccc12 [Example 56, 8-[(2,6-difluorobenzyl)oxy]-2-methyl-N-(naphthalen-1-yl)imidazo[1,2-a]pyridine-3-carboxamide] | 0.1
33 | Cc1nc2c(OCc3c(F)cccc3F)cccn2c1C(=O)Nc1c[nH]c2ccccc12 [Example 2] | 0.1
34 | Cc1nc2c(OCc3c(F)cccc3F)cccn2c1C(=O)Nc1cnn(CCN2CCN(C)CC2)c1 [Example 133, 8-[(2,6-difluorobenzyl)oxy]-2-methyl-N-{1-[2-(4-methylpiperazin-1-yl)ethyl]-1H-pyrazol-4-yl)imidazo [1,2-a]pyridine-3-carboxamide] | 10
35 | Cc1nc2c(OCc3c(F)cccc3F)cccn2c1C(=O)Nc1ccnn1C(C)C [Example 21] | 1.0
36 | 8-[(2,6-difluorobenzyl)oxy]-N-[1-(2- hydroxyethyl)-5-methyl-3-(trifluoromethyl)-1H- pyrazol-4-yl]-2,6-dimethylimidazo[1,2-a]pyridine- 3-carboxamide [Example 118] | 0.1
37 | Cc1n[nH]c(C)c1NC(=O)c1c(C)nc2c(OCc3cccc(F)c3F)cc(Cl)cn12 [Example 53, 6-chloro-8-[(2,3-difluorobenzyl)oxy]-N-(3,5-dimethyl-1H-pyrazol-4-yl)-2-methylimidazo[1,2-a]pyridine-3-carboxamide] | 1.0
